Legend:
[1] = tested on: Herpes Simplex Virus Type 2; assay: Antiviral activity against Herpes simplex virus type 2 infection in mice; assay type: in vivo, mouse; settings: for Mean Survival Time: at -48, -24, and -2 h
Description: In this test Compound 7 was tested against both Herpes Simplex Type 1 Virus and Herpes Simplex Type 2 Virus. […] In each of these tests a placebo was utilized for control purposes. The survival time reflects survival time of those animals which succumbed during the test. […]
^b A 2% sodium bicarbonate solution was used as the placebo and as
diluent for Compound -7.
^c Statistically significant (p < .05) difference between the
drugtreated and placebo control mice, determined by the twotailed ttest.

P388 = assay: Response of P388 inoculated mice to various dosages, inocula and schedules; assay type: in vivo, mouse
Excerpt: For this example varying concentrations of the number of test cells utilized for P388 inoculum and concentrations of compound 7 were utilized with various schedules of drug administration.
^a P388 ascites cells were implanted ip in the concentrations
indicated in BDF1 female mice on day 0, and ip bolus injections of
drug were delivered once daily on the days indicated in the conentrations
indicated. Control mice received a 0.09% solution of NaCl delivered on th

YAC1 target cells = assay: Natural killer cell activity in old C57BL/6J mice (in vivo treatment, spleen cells); parameters: species or system mouse; settings: 8 month old mice
Description: For this test compound 7 was injected at a dose of 1.67 mg per mouse and 3.34 mg per mouse and after a day the natural killer cell activity of the spleen cells was determined.
i.p. route. Spleens after treatment were removed, cells were isolated and […]

Which results are given for `Nc1nc2c(sc(=O)n2[C@@H]2O[C@H](CO)[C@@H](O)[C@H]2O)c(=O)[nH]1` [Compound 7, 5-Amino-3-β-D-ribofuranosylthiazolo[4,5-d]pyrimidine-2,7(6H)-dione]?
Mean Survival Time ([1]; 50 mg/kg/day): 11.8 ± 2.3 days; Mean Survival Time ([1]; 100 mg/kg/day): 11.2 ± 1.5 days; toxicity ([1]; 200 mg per kg in the mouse): partially toxic; Mean Survival Time ([1]; 200 mg/kg/day): 7.2 ± 3.9 days; deaths from drug toxicity ([1]; 200 mg/kg/day, days 1 and 2 post virus inoculation): Three mice died on days 1 and 2; survival time of the rest of the mice that died ([1]; 200 mg/kg/day, excluding three toxicity deaths): 9.6 ± 0.8 days; groups showing an increase in life span (P388; 26 of the 34 groups): 76%; % Increased Life Span (P388; Study 1, 1 × 10^2 cells, 37 mg/kg/inj day 1-9): 0%; % Increased Life Span (P388; Study 1, 1 × 10^2 cells, 37 mg/kg/inj day 1, 3 mice, printed as cures): 2 cures; % Increased Life Span (P388; Study 1, 1 × 10^2 cells, 62 mg/kg/inj day 1-9): 33%; % Increased Life Span (P388; Study 1, 1 × 10^2 cells, 62 mg/kg/inj day 1, 3 mice, printed as cures): 1 cure; % Increased Life Span (P388; Study 1, 1 × 10^2 cells, 104 mg/kg/inj day 1): 0%; % Increased Life Span (P388; Study 1, 1 × 10^2 cells, 104 mg/kg/inj day 1-9): 10%; % Increased Life Span (P388; Study 2, 1 × 10^2 cells, 8 mg/kg/inj day 1): 9%; % Increased Life Span (P388; Study 2, 1 × 10^2 cells, 13 mg/kg/inj day 1): 7%; % Increased Life Span (P388; Study 2, 1 × 10^2 cells, 22 mg/kg/inj day 1): 7%; % Increased Life Span (P388; Study 2, 1 × 10^2 cells, 37 mg/kg/inj day 1): 3%; % Increased Life Span (P388; Study 3, 1 × 10^4 cells, 37 mg/kg/inj day 1): 2%; % Increased Life Span (P388; Study 3, 1 × 10^4 cells, 37 mg/kg/inj day 1-9): 0%; % Increased Life Span (P388; Study 3, 1 × 10^4 cells, 62 mg/kg/inj day 1): 0%; % Increased Life Span (P388; Study 3, 1 × 10^4 cells, 62 mg/kg/inj day 1-9): 2%; % Increased Life Span (P388; Study 3, 1 × 10^4 cells, 104 mg/kg/inj day 1): 0%; % Increased Life Span (P388; Study 3, 1 × 10^4 cells, 104 mg/kg/inj day 1-9): 6%; % Increased Life Span (P388; Study 4, 1 × 10^6 cells, 37 mg/kg/inj day 1): 0%; % Increased Life Span (P388; Study 4, 1 × 10^6 cells, 37 mg/kg/inj day 1-9): 5%; % Increased Life Span (P388; Study 4, 1 × 10^6 cells, 62 mg/kg/inj day 1): 0%; % Increased Life Span (P388; Study 4, 1 × 10^6 cells, 62 mg/kg/inj day 1-9): 5%; % Increased Life Span (P388; Study 4, 1 × 10^6 cells, 104 mg/kg/inj day 1): 9%; % Increased Life Span (P388; Study 4, 1 × 10^6 cells, 104 mg/kg/inj day 1-9): 23%; % Increased Life Span (P388; Study 5, 1 × 10^6 cells, 37 mg/kg/inj day 2): 0%; % Increased Life Span (P388; Study 5, 1 × 10^6 cells, 37 mg/kg/inj day 2,4): 8%; % Increased Life Span (P388; Study 5, 1 × 10^6 cells, 37 mg/kg/inj day 2-6): 8%; % Increased Life Span (P388; Study 5, 1 × 10^6 cells, 62 mg/kg/inj day 2): 5%; % Increased Life Span (P388; Study 5, 1 × 10^6 cells, 62 mg/kg/inj day 2,4): 8%; % Increased Life Span (P388; Study 5, 1 × 10^6 cells, 62 mg/kg/inj day 2-6): 15%; % Increased Life Span (P388; Study 5, 1 × 10^6 cells, 104 mg/kg/inj day 2): 10%; % Increased Life Span (P388; Study 5, 1 × 10^6 cells, 104 mg/kg/inj day 2,4): 5%; % Increased Life Span (P388; Study 5, 1 × 10^6 cells, 104 mg/kg/inj day 2-6): 12%; toxicity (P388; Study 6, 140 mg/kg/inj day 2,4,6,8, 7 mice): toxic in one animal; % Increased Life Span (P388; Study 6, 1 × 10^6 cells, 140 mg/kg/inj day 2): 4%; % Increased Life Span (P388; Study 6, 1 × 10^6 cells, 140 mg/kg/inj day 2,4,6,8): 21%; % Increased Life Span (P388; Study 6, 1 × 10^6 cells, 140 mg/kg/inj day 2,6): 20%; % Natural Killer Cell Cytotoxicity (YAC1 target cells; 1.67 mg i.p., E:T 50:1): 14%; % Natural Killer Cell Cytotoxicity (YAC1 target cells; 1.67 mg i.p., E:T 100:1): 19%; % Natural Killer Cell Cytotoxicity (YAC1 target cells; 1.67 mg i.p., E:T 150:1): 23%; % Natural Killer Cell Cytotoxicity (YAC1 target cells; 3.34 mg i.p., E:T 50:1): 17%

From patent publication US5041426A, “Immune system enhancing 3-β-d-ribofuranosylthiazolo[4,5-d]pyridimine nucleosides and nucleotides” (priority 1988, dated 1991)
